The values that follow come from patent US9204653B2, “5-fluoro pyrimidine derivatives” (DOW AGROSCIENCES LLC, priority 2008, dated 2015).

The test has as its system Mycosphaerella graminicola; Anamorph: Septoria tritici; Bayer Code SEPTTR. In words: Leaf blotch of wheat, foliar fungicide treatment, one day protectant (1DP) or three day curative (3DC). As to conditions: Zymoseptoria tritici; for pest or weed control at 25 ppm / pest or weed control at 100 ppm: rating of percent disease control; for pest or weed control at 50 ppm / pest or weed control at 200 ppm: % disease control rating, one day protectant. The format is in vivo, Septoria tritici on wheat plants (variety Yuma).

[1] abbreviates: 24 h, one day protectant (1DP), read-out: SETTTR 1DP 25 ppm.
[2] abbreviates: 24 h, one day protectant (1DP), read-out: SEPTTR 1DP 100 ppm.
Where [3] appears, read: 72 h, three day curative (3DC), read-out: SEPTTR 3DC 25 ppm.
Setting [4] is: 72 h, three day curative (3DC), read-out: SEPTTR 3DC 100 ppm.

Each structure is given as a SMILES string. Read-outs that look alike come from different tables or passages of the source.

On to `CC(C)COC(=O)Oc1ncc(F)c(/N=C/N(C)C)n1` [Compound 788], for which the pest or weed control at 25 ppm by setting is: under setting [1], 76 to 100%; under setting [3], 76 to 100%. Further, the pest or weed control at 100 ppm runs as follows: under setting [2], 76 to 100%; under setting [4], 76 to 100%.
In the case of `CN(C)/C=N/c1nc(OC(=O)OCc2ccccc2Cl)ncc1F` [Compound 789], the pest or weed control at 25 ppm runs as follows: under setting [1], 76 to 100%; under setting [3], 76 to 100%. Also, the pest or weed control at 100 ppm is, setting by setting: under setting [2], 76 to 100%; under setting [4], 76 to 100%.
For `CCCCOc1cccc(C(C)Oc2ncc(F)c(N)n2)c1` (stereo not drawn) [Compound 790], the pest or weed control at 25 ppm under setting [1] was 76 to 100% and the pest or weed control at 25 ppm under setting [3] is 76 to 100%. In addition, the pest or weed control at 100 ppm was in the range of 76 to 100% under setting [2] and 76 to 100% under setting [4].
Take `O=C(Cc1ccccc1)Nc1nc(OCc2ccccc2)ncc1F` [Compound 792]: the pest or weed control at 25 ppm by setting is: under setting [1], 76 to 100%; under setting [3], 26 to 50%. The pest or weed control at 100 ppm by setting is: under setting [2], 76 to 100%; under setting [4], 51 to 75%.
With `CC(C)C(=O)NNc1nc(OCc2ccc(F)cc2)ncc1F` [Compound 793], the pest or weed control at 25 ppm was in the range of 0 to 25% under setting [1] and 0 to 25% under setting [3]. In addition, the pest or weed control at 100 ppm by setting is: under setting [2], 0 to 25%; under setting [4], 0 to 25%.
For `COc1cccc(COc2ncc(F)c(N)n2)c1F` [Compound 794], the pest or weed control at 25 ppm under setting [1] is 76 to 100% and the pest or weed control at 25 ppm under setting [3] was 76 to 100%. In addition, the pest or weed control at 100 ppm reads like this: under setting [2], 76 to 100%; under setting [4], 76 to 100%.
For `Fc1ccc(COc2ncc(F)c(/N=C/N3CCOCC3)n2)cc1` [Compound 795], the pest or weed control at 25 ppm runs as follows: under setting [1], 76 to 100%; under setting [3], 76 to 100%. Besides, the pest or weed control at 100 ppm is, setting by setting: under setting [2], 76 to 100%; under setting [4], 76 to 100%.
Take `COc1c(F)cc(F)cc1COc1ncc(F)c(N)n1` [Compound 796]: the pest or weed control at 25 ppm under setting [1] fell in the range of 76 to 100% and the pest or weed control at 25 ppm under setting [3] was in the range of 76 to 100%. For the same compound, the pest or weed control at 100 ppm by setting is: under setting [2], 76 to 100%; under setting [4], 76 to 100%.
For `COc1ccccc1COc1ncc(F)c(NC(=S)NCc2ccccc2F)n1` [Compound 797], the pest or weed control at 25 ppm runs as follows: under setting [1], 51 to 75%; under setting [3], 26 to 50%. The pest or weed control at 100 ppm reads like this: under setting [2], 76 to 100%; under setting [4], 76 to 100%.
Consider `CC(Oc1ncc(F)c(N)n1)c1cccc(I)c1` (stereo not drawn) [Compound 798], for which the pest or weed control at 25 ppm is 76 to 100% under setting [1] and 76 to 100% under setting [3]. Besides, the pest or weed control at 100 ppm under setting [2] is 76 to 100% and the pest or weed control at 100 ppm under setting [4] lay within 76 to 100%.
For the compound `O=C(Nc1ccccc1F)Nc1nc(OCc2cccs2)ncc1F` [Compound 799], the pest or weed control at 25 ppm runs as follows: under setting [1], 0 to 25%; under setting [3], 0 to 25%. Further, the pest or weed control at 100 ppm reads like this: under setting [2], 0 to 25%; under setting [4], 0 to 25%.
For the compound `CC(C)(C)OCCOc1ncc(F)c(N)n1` [Compound 802], the pest or weed control at 25 ppm by setting is: under setting [1], 0 to 25%; under setting [3], 0 to 25%. The pest or weed control at 100 ppm lay in the range of 0 to 25% under setting [2] and 0 to 25% under setting [4].
As to `Fc1ccccc1CNc1nc(OC2CCCCC2)ncc1F` [Compound 803], for the setting “24 h”, the pest or weed control at 50 ppm was 0 to 25% and the pest or weed control at 200 ppm lay in the range of 51 to 75%.
Under “24 h”, `Fc1ccc(COc2ncc(F)c(NCCc3ccccc3)n2)cc1` [Compound 805] registered a pest or weed control at 50 ppm of 51 to 75% and a pest or weed control at 200 ppm of 76 to 100%.
Compound `Fc1cnc(OCc2cccc(C(F)(F)F)c2)nc1NCc1cccs1` [Compound 806] registered a pest or weed control at 200 ppm (24 h) of 76 to 100%.
Consider `Fc1cnc(OCc2ccccc2Cl)nc1NC1CC1` [Compound 807], for which the pest or weed control at 200 ppm (24 h) fell in the range of 76 to 100%.
For `Fc1cnc(OCc2ccc(Cl)cc2)nc1NCc1cccs1` [Compound 808], where the note is “24 h”, the pest or weed control at 50 ppm lay within 76 to 100% and the pest or weed control at 200 ppm was 76 to 100%.
With `Fc1ccccc1CNc1nc(OCc2ccccc2F)ncc1F` [Compound 809], where the note is “24 h”, the pest or weed control at 50 ppm is 51 to 75% and the pest or weed control at 200 ppm lay in the range of 76 to 100%.
Under “24 h”, `Fc1cnc(OCc2ccccc2Cl)nc1NCc1cccs1` [Compound 810] had a pest or weed control at 200 ppm of 76 to 100%.
Turning to `Fc1cnc(OCc2ccc(C(F)(F)F)cc2)nc1NCc1ccc(Cl)cc1` [Compound 811], where the note is “24 h”, the pest or weed control at 50 ppm fell in the range of 76 to 100% and the pest or weed control at 200 ppm lay within 76 to 100%.
Regarding `COc1cccc(COc2ncc(F)c(NC3CC3)n2)c1` [Compound 812], the pest or weed control at 200 ppm (24 h) fell in the range of 76 to 100%.
For the setting “24 h”, `Fc1cnc(OCc2cccc(C(F)(F)F)c2)nc1NCc1ccc(Cl)cc1` [Compound 813] gave a pest or weed control at 50 ppm of 76 to 100% and a pest or weed control at 200 ppm of 76 to 100%.
The compound `Fc1cnc(OCc2cc(Cl)cc(Cl)c2)nc1NCc1cccs1` [Compound 814] showed a pest or weed control at 200 ppm (24 h) of 76 to 100%.
Turning to `CC(=O)Nc1nc(OCc2cccc(Oc3ccccc3)c2)ncc1F` [Compound 815], where the note is “24 h”, the pest or weed control at 50 ppm was in the range of 76 to 100% and the pest or weed control at 200 ppm was in the range of 76 to 100%.
For `Fc1cnc(OCc2ccc(Cl)cc2)nc1NCc1ccc(Cl)cc1` [Compound 816], under “24 h”, the pest or weed control at 50 ppm lay within 76 to 100% and the pest or weed control at 200 ppm is 76 to 100%.
In the case of `Fc1ccccc1CNc1nc(OCc2ccco2)ncc1F` [Compound 817], where the note is “24 h”, the pest or weed control at 50 ppm lay in the range of 26 to 50% and the pest or weed control at 200 ppm was in the range of 76 to 100%.
With `Cc1cnc(CNc2nc(OCC(F)(F)F)ncc2F)cn1` [Compound 818], for the setting “24 h”, the pest or weed control at 50 ppm lay within 0 to 25% and the pest or weed control at 200 ppm was 0 to 25%.
In the case of `Fc1cnc(OCc2ccc(C(F)(F)F)cc2)nc1NC1CC1` [Compound 819], the pest or weed control at 200 ppm (24 h) fell in the range of 76 to 100%.
Under “24 h”, `Fc1cccc(COc2ncc(F)c(NCc3ccc(Cl)cc3)n2)c1` [Compound 820] yielded a pest or weed control at 50 ppm of 26 to 50% and a pest or weed control at 200 ppm of 76 to 100%.
`COc1ccccc1COc1ncc(F)c(NC2CC2)n1` [Compound 821]: under “24 h”, the pest or weed control at 200 ppm lay in the range of 76 to 100%.
For the setting “24 h”, `Cc1cnc(CNc2nc(OCc3cccs3)ncc2F)cn1` [Compound 822] yielded a pest or weed control at 50 ppm of 26 to 50% and a pest or weed control at 200 ppm of 76 to 100%.
Turning to `COc1ccc(COc2ncc(F)c(NC3CC3)n2)cc1` [Compound 823], the pest or weed control at 200 ppm (24 h) fell in the range of 76 to 100%.
Where the note is “24 h”, `Fc1cccc(COc2ncc(F)c(NCc3ccccc3F)n2)c1` [Compound 824] displayed a pest or weed control at 50 ppm of 76 to 100% and a pest or weed control at 200 ppm of 76 to 100%.
As for `Fc1ccc(COc2ncc(F)c(NCc3ccccc3F)n2)cc1F` [Compound 825], under “24 h”, the pest or weed control at 50 ppm fell in the range of 51 to 75% and the pest or weed control at 200 ppm fell in the range of 76 to 100%.
For `Fc1cnc(OCc2cccc(C(F)(F)F)c2)nc1NC1CC1` [Compound 826], the pest or weed control at 200 ppm (24 h) is 76 to 100%.
Regarding `Fc1cnc(OCc2ccco2)nc1NCCc1ccccc1` [Compound 827], where the note is “24 h”, the pest or weed control at 50 ppm was 0 to 25% and the pest or weed control at 200 ppm was in the range of 26 to 50%.
For `Fc1cnc(OCCc2ccccc2)nc1N1CCOCC1` [Compound 828] the same measures were 0 to 25% and 0 to 25%.
Under “24 h”, `Fc1cnc(OCc2ccc(OC(F)(F)F)cc2)nc1NCc1ccc(Cl)cc1` [Compound 829] came in with a pest or weed control at 50 ppm of 26 to 50% and a pest or weed control at 200 ppm of 76 to 100%.
Consider `Fc1cnc(OCC(F)(F)F)nc1NCc1cccs1` [Compound 830], for which, under “24 h”, the pest or weed control at 50 ppm is 0 to 25% and the pest or weed control at 200 ppm was 0 to 25%.
For the setting “24 h”, `Fc1cnc(OCc2cccs2)nc1NCc1cccs1` [Compound 831] gave a pest or weed control at 50 ppm of 51 to 75% and a pest or weed control at 200 ppm of 76 to 100%.
For the setting “24 h”, `O=c1nc(NCc2ccccc2F)c(F)c[nH]1` [Compound 832] displayed a pest or weed control at 50 ppm of 0 to 25% and a pest or weed control at 200 ppm of 0 to 25%.
Take `Fc1ccc(COc2ncc(F)c(NCC(F)(F)F)n2)cc1` [Compound 833]: for the setting “24 h”, the pest or weed control at 50 ppm lay in the range of 26 to 50% and the pest or weed control at 200 ppm was in the range of 51 to 75%.
`Fc1ccc(COc2ncc(F)c(NC3CC3)n2)c(F)c1` [Compound 834] displayed a pest or weed control at 200 ppm (24 h) of 76 to 100%.
Regarding `Fc1cnc(OCc2c(Cl)cccc2Cl)nc1NCc1cccs1` [Compound 835], under “24 h”, the pest or weed control at 200 ppm was 76 to 100%.
Where the note is “24 h”, `Cc1ccc(COc2ncc(F)c(N3CCOCC3)n2)cc1` [Compound 836] returned a pest or weed control at 50 ppm of 51 to 75% and a pest or weed control at 200 ppm of 76 to 100%.
For `Fc1cnc(OC2CCCCC2)nc1NCCc1ccccc1` [Compound 837] the same measures were 0 to 25% and 0 to 25%.
Where the note is “24 h”, `Fc1cnc(OCc2ccc(Cl)cc2Cl)nc1NCc1cccs1` [Compound 838] returned a pest or weed control at 200 ppm of 76 to 100%.
As for `Fc1cnc(OCc2ccc3c(c2)OCO3)nc1NCc1cccs1` [Compound 839], under “24 h”, the pest or weed control at 200 ppm was 76 to 100%.
With `Fc1ccc(COc2ncc(F)c(NCc3ccc(Cl)cc3)n2)cc1` [Compound 840], for the setting “24 h”, the pest or weed control at 50 ppm was 51 to 75% and the pest or weed control at 200 ppm was 76 to 100%.
The corresponding values for `Fc1cnc(OC2CCCCC2)nc1NCc1ccc2c(c1)OCO2` [Compound 841] are 51 to 75% and 76 to 100%.
Under “24 h”, `Fc1cnc(OCc2ccc(Cl)cc2)nc1NCc1ccc2c(c1)OCO2` [Compound 842] yielded a pest or weed control at 50 ppm of 76 to 100% and a pest or weed control at 200 ppm of 76 to 100%.
As to `Fc1cnc(OCCc2ccccc2)nc1NCc1cccs1` [Compound 843], for the setting “24 h”, the pest or weed control at 50 ppm fell in the range of 26 to 50% and the pest or weed control at 200 ppm is 76 to 100%.
For `Cc1ccc(COc2ncc(F)c(NCc3ccc(Cl)nc3)n2)cc1` [Compound 844] the same measures were 76 to 100% and 76 to 100%.
